Results as given in paper PMC11811597, “Phenomics‐Based Discovery of Novel Orthosteric Choline Kinase Inhibitors” (Angewandte Chemie (International Ed. in English), 2025).

Legend:
PRCP = test: Competitive affinity-based chemoproteomics (UNC0965 matrix), PBMC cell extract; type: binding, human; conditions: 20 µM competitor, n=2
Method: (§1) described.[2] Lysates were precleared with bead slurry (100 μL) for 30 min at 4 °C and then treated with UNC0638 or UNC0737 (20 μM) or DMSO control for 30 min at 4 °C followed by incubation with affinity matrix for 2 h at 4 °C. Affinity matrices were washed with buffer A (5 mL) and proteins eluted with 100 μL of 2x Laemmli sample buffer, 100 mM DTT, in PBS and heating for 10 min at 90 °C.
(§2) Eluents (70 µL) were diluted in 0.1 M Tris (pH 7.8) to 200 µL, reduced with 5 mM DTT for 30 min at RT, and alkylated with 20 mM iodoacetamide for 30 min at RT in the dark. Proteins were precipitated by sequential addition of MeOH (600 µL), CHCl3 (150 µL) and H2O (450 µL), pelleted (17,000 × g, 5 min), washed with further MeOH (2 × 600 µL), and re-pelleted. Air dried pellets were resuspended in 50 μL 6 M urea (pH 7.8) by vortexing and then diluted with 250 μL H2O before adding 1 µg trypsin for overnight incubation at 37 °C. The digests were acidified with FA (1% v/v final concentration), desalted using SOLA HRP SPE Cartridges (Thermo Fisher), eluted with 69% v/v MeCN, 0.1% v/v FA in H2O (600 μL) and dried in vacuo. Dried peptides were stored at -20 °C before resuspension in 2% v/v MeCN, 0.1% v/v FA in H2O (20 μL) for LC-MS/MS analysis.
(§3) LC-MS/MS Data Acquisition
(§4) Digested samples were analysed by nano-UPLC–MS/MS using a Dionex Ultimate 3000 nano UPLC fitted with an EASY spray column (75 μm × 500 mm, 2 μm particle size, Thermo Scientific), coupled to an Orbitrap Q Exactive instrument. A 60 min gradient of 0.1% (v/v) formic acid in 5 % (v/v) DMSO to 0.1% (v/v) formic acid with 35% (v/v) acetonitrile in 5 % (v/v) DMSO at a flow rate of 250 nL min−1 was used. The instrument was operated in a data-dependant mode, with survey scans acquired at a resolution of 70,000 at 200 m/z and the 15 most abundant precursors selected for HCD fragmentation with an AGC target of […] ions.
(§5) Raw data was processed using MaxQuant[3] version 2.0.1.0 and the reference complete human proteome FASTA file (UniProt, downloaded 05.08.21). Label Free Quantification (LFQ) and Match Between Runs were selected; Cysteine carbamidomethylation was selected as a fixed modification, and methionine oxidation and asparagine deamidation as variable modifications. Default settings for identification and quantification were used. Specifically, a minimum peptide length of 7, a maximum of 2 missed cleavage sites, and a maximum of 5 labelled amino acids per peptide were allowed.
(§6) Through selection of the ‘trypsin/P’ general setting, peptide bond cleavage at arginine or lysine (followed by any amino acid) was considered during in silico digest of the reference proteome. […]
(§7) mode selected for both identification and quantification of proteins (razor peptides are uniquely assigned to protein groups and not to individual proteins).

PWP1 = test: as above; type: binding, human; conditions: 20 µM competitor, n=2
Method: as §1, §2, §3, §4, §5, §6, §7

CHKA = CHKA (Homo sapiens, UniProt P35790); test: PK/LDH coupled choline kinase enzyme assay; type: biochemical; parameters: host or cells: E. coli BL21(DE3); conditions: concentration-dependent
CHKA, sequence (P35790 75-457 limits assumed): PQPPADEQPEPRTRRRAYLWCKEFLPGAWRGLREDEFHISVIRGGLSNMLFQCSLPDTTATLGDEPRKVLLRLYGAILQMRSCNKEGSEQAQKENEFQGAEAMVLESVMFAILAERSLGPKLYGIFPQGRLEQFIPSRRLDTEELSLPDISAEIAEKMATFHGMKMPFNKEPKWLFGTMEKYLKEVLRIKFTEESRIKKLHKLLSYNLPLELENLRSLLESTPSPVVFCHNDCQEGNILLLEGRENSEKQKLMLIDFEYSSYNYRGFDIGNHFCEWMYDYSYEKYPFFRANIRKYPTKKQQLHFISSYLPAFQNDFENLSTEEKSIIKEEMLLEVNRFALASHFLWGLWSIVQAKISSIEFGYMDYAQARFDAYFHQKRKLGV
Method: carried out using REFMAC[9] and COOT,[10] and concluded when no improvements resulted for Rfree and Rwork values, and when density maps indicated no further changes were justified.
Choline Coupled Enzymatic Assay
CHKA (120 ng, 24 µg/ml) was arrayed (5 µL) into a 96 well semi-skirted real time PCR plate. 4-fold dilution series and vehicle controls (0.5% DMSO) were prepared in a separate plate. A further DMSO control was included for use with a no protein well control. The dilutions (17 µL) were mixed with reaction buffer (136 µL, see Table below) and arrayed (45 µL) onto the CHKA-containing PCR plate.
After mixing, bubbles were removed by centrifugation (1000 × g, 1 min) and absorbance read at 340 nm on a PheraSTAR FSX (BMG Labtech), reading every minute for 10 min. Non-linear curve fitting and graph generation was performed using Graphpad Prism 8 software.
Components of the assay reaction buffer.
Component Stock concentration Volume per buffer Final reaction […]
Experiments were performed as described earlier with few modifications. In short, 3 replicates of intact HepG2 cells were treated with 30 µM UNC0638, UNC373 or corresponding volume of DMSO in medium-free experimental buffer for 60 min at 37 °C with end-over-end rotation. For lysates: Washed K562 cells were resuspended in medium-free experimental buffer and lysed by three freeze-thaw cycles. […]

COc1cc2c(NC3CCN(C(C)C)CC3)nc(C3CCCCC3)nc2cc1OCCCN1CCCC1 [UNC0638]
FC vs DMSO (log2 competition), PRCP (PRCP): -3.268
FC vs DMSO (log2 competition), PWP1 (PWP1): -2.002
CHKA catalytic activity (CHKA): suppressed CHKA catalytic activity

COc1cc2c(N(C)C3CCN(C(C)C)CC3)nc(C3CCCCC3)nc2cc1OCCCN1CCCC1 [UNC0737]
FC vs DMSO (log2 competition), PRCP (PRCP): -0.4338
FC vs DMSO (log2 competition), PWP1 (PWP1): -0.1275
CHKA catalytic activity (CHKA): suppressed CHKA catalytic activity
